Assay results taken from US8231869B2, “Recombinant plasmin for opthalmic indications” (priority 2005, dated 2012).
Where two headings read alike, the source gives them in different places. Where a SMILES comes first, the peptide text is derived from it. [ ]: non-standard residue; d: D form. The star is where a group is joined. pNA = O=[N+]([O-])c1ccc(N*)cc1

B1: human plasmin (full-length; native human plasminogen SEQ ID NO: 4) (Homo sapiens) (protein)
chain: VVGGCVAHPHSWPWQVSLRTRFGMHFCGGTLISPEWVLTAAHCLEKSPRPSSYKVILGAHQEVNLEPHVQEIEVSRLFLEPTRKDIALLKLSSPAVITDKVIPACLPSPNYVVADRTECFITGWGETQGTFGAGLLKEAQLPVIENKVCNRYEFLNGRVQSTELCAGHLAGGTDSCQGDSGGPLVCFEKDKYILQGVTSWGLGCARPNKPGVYVRVSRFVTWIEGVMRNN
notes: The C-terminal light chain of plasmin (residues 562-791); The amino-terminal heavy chain of plasmin
B2: human mini-plasmin (plasmin fragment, domain composition K5-SP; mini-plasminogen residues Val443-Asn791) (Homo sapiens) (protein)
chain: B1 chain
notes: includes residues Val443-Asn791 and consists of the fifth kringle and the serine protease domain
B3: human micro-plasmin (plasmin lacking all five kringles) (Homo sapiens) (protein)
chain: B1 chain
notes: micro-plasmin (lacking all five kringles)

Experiments:
[1] = molecular target: human plasmin (full-length; native human plasminogen SEQ ID NO: 4) (Homo sapiens, UniProt P00747); assay: Amidolytic activity, steady-state kinetics with substrate S-2251; format: biochemical; settings: substrate S-2251, PBS buffer, pH 7.4, 25° C.
[2] = molecular target: human micro-plasmin (plasmin lacking all five kringles) (Homo sapiens, UniProt P00747); assay: as above; format: biochemical; settings: substrate S-2251, PBS buffer, pH 7.4, 25° C.
[3] = molecular target: delta-plasmin (recombinant human plasmin deletion mutant, kringle 1-serine protease domain, deletion of K2-5; from delta-plasminogen SEQ ID NO: 2) (Homo sapiens, UniProt P00747, DELINS146-524/G536N/G539Q/K528E/L551R/N547D/P558L/Q559E/R549E/V538P/V557I); assay: as above; format: biochemical; settings: substrate S-2251, PBS buffer, pH 7.4, 25° C.
[4] = molecular target: kringle 1 (of human plasminogen); settings: literature value, et al., read-out: kringle 1 affinity for εACA (Kd), cited from earlier work
[5] = substrate: CC(C)C[C@H](NC(=O)[C@H](N)C(C)C)C(=O)N[C@@H](CCCCN)C(=O)Nc1ccc([N+](=O)[O-])cc1; assay: purified protein, by the assay type; format: biochemical, human; settings: other: substrate S-2251, PBS buffer, pH 7.4, 25° C.

Sequence of delta-plasmin (recombinant human plasmin deletion mutant, kringle 1-serine protease domain, deletion of K2-5; from delta-plasminogen SEQ ID NO: 2) (P00747 with tags, fused parts or gaps K528E/G536N/V538P/G539Q/N547D/R549E/L551R/V557I/P558L/Q559E limits assumed): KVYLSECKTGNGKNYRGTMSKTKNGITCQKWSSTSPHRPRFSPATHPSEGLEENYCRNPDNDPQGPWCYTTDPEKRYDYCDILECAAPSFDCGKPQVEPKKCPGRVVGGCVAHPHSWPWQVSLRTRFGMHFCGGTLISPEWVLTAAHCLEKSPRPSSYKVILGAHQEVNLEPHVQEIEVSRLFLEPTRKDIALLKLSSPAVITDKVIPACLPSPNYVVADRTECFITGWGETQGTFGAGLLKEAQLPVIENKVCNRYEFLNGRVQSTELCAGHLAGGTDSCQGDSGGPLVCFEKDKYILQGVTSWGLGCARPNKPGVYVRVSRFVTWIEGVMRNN
Sequence of human plasmin (full-length; native human plasminogen SEQ ID NO: 4) (P00747 97-580 partner limits assumed, one chain of several): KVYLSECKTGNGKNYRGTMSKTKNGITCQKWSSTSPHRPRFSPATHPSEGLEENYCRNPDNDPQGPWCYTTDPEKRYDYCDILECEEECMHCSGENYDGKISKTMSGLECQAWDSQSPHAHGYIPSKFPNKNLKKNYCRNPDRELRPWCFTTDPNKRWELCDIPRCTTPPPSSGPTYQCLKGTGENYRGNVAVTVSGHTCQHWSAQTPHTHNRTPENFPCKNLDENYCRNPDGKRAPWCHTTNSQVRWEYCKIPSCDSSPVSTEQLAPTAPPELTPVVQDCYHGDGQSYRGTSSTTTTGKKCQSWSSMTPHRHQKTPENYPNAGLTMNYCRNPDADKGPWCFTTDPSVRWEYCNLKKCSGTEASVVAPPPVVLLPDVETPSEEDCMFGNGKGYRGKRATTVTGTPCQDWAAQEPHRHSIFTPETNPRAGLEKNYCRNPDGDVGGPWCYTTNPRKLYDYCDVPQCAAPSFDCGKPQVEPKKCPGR

Molecule | Km [5] | kcat [5] | other results
CC(C)C[C@H](NC(=O)[C@H](N)C(C)C)C(=O)N[C@@H](CCCCN)C(=O)Nc1ccc([N+](=O)[O-])cc1 [S-2251, D-Val-Leu-Lys-p-nitroanilide] (H-[dV]-Leu-Lys-pNA) |  |  | kcat [1]: 12.7 ± 0.383 s⁻¹; kcat [2]: 13.2 ± 0.4 s⁻¹; kcat ([3]; corrected for percent active sites (67%, PNPGB titration)): 12.6 ± 0.75 s⁻¹; kcat (for the preparation) ([3]; not corrected for percent active sites): 8.5 s⁻¹
NCCCCCC(=O)O [εACA, ε-aminocaproic acid] |  |  | Kd ([4]; Douglas): 13 µM; Kd ([4]; Matsuka): 3.2 µM
B1 | 193 +/− 7 μM μM | 760 +/− 23 min^−1 min^−1 | 
B2 | 160 +/− 30 μM μM | 770 +/− 70 min^−1 min^−1 | 
B3 | 145 +/− 13 μM μM | 795 +/− 24 min^−1 min^−1 | 
